Laboratory results: US20250025447A1, “TOLL-LIKE RECEPTOR AGONISTS AND ANTAGONISTS AND USES THEREOF” (Regents of the University of Minnesota, priority 2021, published 2025)
“Also recorded” adds a separate entry of the source. Where two headings read alike, the source gives them in different places.

Columns and labels:
[1] = biological target: T1, human TLR-7 (Homo sapiens, UniProt Q9NYK1); test: TLR-7/NF-κB/SEAP reporter assay in HEK293 cells, agonist mode
T1 sequence (Q9NYK1 27-1049): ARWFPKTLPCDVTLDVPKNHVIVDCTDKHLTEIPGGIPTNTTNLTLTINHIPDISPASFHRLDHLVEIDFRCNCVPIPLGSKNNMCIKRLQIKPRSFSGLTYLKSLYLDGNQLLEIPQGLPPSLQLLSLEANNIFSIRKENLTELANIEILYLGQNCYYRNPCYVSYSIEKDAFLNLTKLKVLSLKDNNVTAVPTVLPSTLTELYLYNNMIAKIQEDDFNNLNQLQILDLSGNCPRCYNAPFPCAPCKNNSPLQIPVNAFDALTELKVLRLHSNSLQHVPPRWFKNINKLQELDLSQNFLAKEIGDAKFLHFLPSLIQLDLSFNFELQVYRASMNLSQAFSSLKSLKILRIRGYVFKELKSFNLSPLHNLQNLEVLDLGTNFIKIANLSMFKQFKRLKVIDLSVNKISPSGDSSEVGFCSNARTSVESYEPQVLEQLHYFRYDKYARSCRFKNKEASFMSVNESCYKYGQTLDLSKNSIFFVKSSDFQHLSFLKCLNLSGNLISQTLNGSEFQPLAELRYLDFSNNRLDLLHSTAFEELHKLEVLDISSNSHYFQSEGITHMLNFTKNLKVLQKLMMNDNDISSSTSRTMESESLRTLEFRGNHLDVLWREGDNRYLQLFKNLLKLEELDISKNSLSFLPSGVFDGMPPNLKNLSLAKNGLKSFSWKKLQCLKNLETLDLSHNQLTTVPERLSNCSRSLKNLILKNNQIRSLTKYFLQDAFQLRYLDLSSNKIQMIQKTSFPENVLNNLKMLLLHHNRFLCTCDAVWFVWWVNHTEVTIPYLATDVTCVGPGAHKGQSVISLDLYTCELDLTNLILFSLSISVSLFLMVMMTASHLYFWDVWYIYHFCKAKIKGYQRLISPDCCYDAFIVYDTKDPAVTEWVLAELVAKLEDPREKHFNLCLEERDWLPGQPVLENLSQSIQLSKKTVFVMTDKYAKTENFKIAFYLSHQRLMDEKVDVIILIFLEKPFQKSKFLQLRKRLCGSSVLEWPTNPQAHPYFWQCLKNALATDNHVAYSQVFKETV

[2] = biological target: T2, human TLR-8 (Homo sapiens, UniProt Q9NR97); test: TLR-8 HEK-SEAP reporter competition (antagonist) assay against agonist compound 5; conditions: agonist compound 5 at different concentrations, FIGS. 1A-D
T2 sequence (Q9NR97 27-1041): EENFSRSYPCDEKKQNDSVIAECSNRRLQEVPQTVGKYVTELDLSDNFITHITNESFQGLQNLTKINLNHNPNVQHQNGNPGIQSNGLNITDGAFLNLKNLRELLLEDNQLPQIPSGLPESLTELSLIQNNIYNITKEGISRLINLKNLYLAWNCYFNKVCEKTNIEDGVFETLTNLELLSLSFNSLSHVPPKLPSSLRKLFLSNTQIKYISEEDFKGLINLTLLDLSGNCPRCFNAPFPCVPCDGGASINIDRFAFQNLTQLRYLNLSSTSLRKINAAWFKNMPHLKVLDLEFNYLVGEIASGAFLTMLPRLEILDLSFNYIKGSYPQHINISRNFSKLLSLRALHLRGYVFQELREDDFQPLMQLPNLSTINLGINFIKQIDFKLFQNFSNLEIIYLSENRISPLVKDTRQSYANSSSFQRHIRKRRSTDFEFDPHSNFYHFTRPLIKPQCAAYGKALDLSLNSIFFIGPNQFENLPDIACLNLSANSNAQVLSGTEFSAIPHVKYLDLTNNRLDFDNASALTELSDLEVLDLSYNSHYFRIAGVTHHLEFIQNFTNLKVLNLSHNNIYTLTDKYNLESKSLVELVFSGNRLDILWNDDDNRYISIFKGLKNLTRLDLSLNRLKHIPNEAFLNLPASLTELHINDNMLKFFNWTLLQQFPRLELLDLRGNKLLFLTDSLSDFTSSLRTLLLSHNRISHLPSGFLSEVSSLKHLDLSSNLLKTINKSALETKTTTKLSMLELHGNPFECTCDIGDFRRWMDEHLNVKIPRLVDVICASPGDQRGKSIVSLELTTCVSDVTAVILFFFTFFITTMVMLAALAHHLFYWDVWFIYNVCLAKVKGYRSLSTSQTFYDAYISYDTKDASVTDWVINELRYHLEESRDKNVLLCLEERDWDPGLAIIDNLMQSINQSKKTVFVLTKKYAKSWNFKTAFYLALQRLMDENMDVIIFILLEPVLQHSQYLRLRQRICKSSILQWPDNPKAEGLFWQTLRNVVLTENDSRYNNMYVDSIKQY

[3] = biological target: T2, human TLR-8; test: TLR-8/NF-κB/SEAP reporter assay in HEK293 cells, agonist mode; conditions: HEK-SEAP reporter cells
[4] = tested on: TNFα, IFNγ and IL-1β production in hPBMCs; test: Competition assay of agonist-induced cytokine induction in hPBMCs (ELISA); type: cell-based, human
Method: Preparation and stimulation of PBMC. Human PBMC can be isolated from heparinized blood by standard density-gradient centrifugation over Ficoll-Paque Plus (Pharmacia, Uppsala, Sweden). Briefly, peripheral blood can be drawn by venipuncture into green top heparin tubes. The blood can be diluted 1:1 with PBS, and then layered upon Ficoll-Paque Plus in 50 ml centrifuge tubes. The tubes can be spun at 2000 rpm for 20 min, after which the buffy coats can be collected and washed twice in PBS. The isolated PBMC can be counted and added to the wells of a 24-well plate (5×10^5 cells/1 ml/well) in RPMI 1640 supplemented with 10% FBS, penicillin, streptomycin, sodium pyruvate, nonessential amino acids, and HEPES. TLR agonist 5 and TLR antagonist 3 can be prepared in DMSO and added to the wells (in triplicate) to reach the desired final concentrations. Some wells may only contain DMSO. After 24 h, culture supernatants can be collected, aliquoted, and frozen at −80° C. until analysis.
Quantitation of IL-1p, IFNγ, and TNFα. The amount of cytokines present in the supernatants after stimulation can be determined via Enzyme-Linked Immunosorbent Assay (ELISA) using a BioLegend ELISA MAX Deluxe Set for each cytokine tested. The assays can be conducted following the protocols provided by the assay set. Cell culture supernatants from hPBMCs can be used directly without dilution for the determination of IFNγ and TNFα but can be diluted accordingly for the IL-1β so the observed cytokine level could fall into the linear range of the assay.
These cytokines can be of particular interest due to the role they play in the driving Th1 differentiation of immune cells and development of cellular immunity.

[5] = biological target: T1, human TLR-7; test: TLR-7 HEK-SEAP reporter competition (antagonist) assay against agonist compound 5; conditions: for TLR-7 antagonist activity against compound 5 (in words): agonist compound 5 at different concentrations, FIGS. 1A-D; for IC50: read-out: TLR-7 reporter cell activity, IC50 of antagonists, relative IC50 at fixed concentration of compound 5, 3 μM

How did the “TLR-7 agonist activity (in words)” value ([1]; HEK-SEAP reporter cells) turn out when `COC(=O)c1ccc2c(c1)nc(N)c1nc(CC(C)C)n(CC(C)O)c12` (stereo not drawn) [Compound 1, methyl 4-amino-1-(2-hydroxypropyl)-2-isobutyl-1H-imidazo[4,5-c]quinoline-7-carboxylate] was run?
Its value is “showed agonist activity”.

What about the EC50 ([1]; read-out: TLR-7 reporter cell activity, EC50, HEK-SEAP reporter cells, agonist) of the same molecule?
Its EC50 is 29.4 ± 2.2 µM.

And the “TLR-8 antagonist activity against compound 5 (in words)” value [2]?
Its value is “reduction of TLR-8 activity”.

With `COC(=O)c1ccc2c(c1)nc(N)c1nc(CC3CC3)n(CC(C)O)c12` (stereo not drawn) [Compound 2, methyl 4-amino-2-(cyclopropylmethyl)-1-(2-hydroxypropyl)-1H-imidazo[4,5-c]quinoline-7-carboxylate] as the molecule, how does the EC50 [1] read?
The EC50 was 13.4 ± 1.5 µM.

And the “TLR-7 agonist activity (in words)” value ([1]; HEK-SEAP reporter cells)?
Its value is “showed agonist activity”.

What about the “TLR-8 agonist activity (in words)” value [3] of the same molecule?
Its value is “showed agonist activity”.

And the EC50 ([3]; read-out: TLR-8 reporter cell activity, EC50, agonist)?
Its EC50 is 18.8 ± 3.4 µM.

How did the “inhibition of TNFα production” value ([4]; agonist 5 induced, FIG. 4A) turn out when `COC(=O)c1ccc2c(c1)nc(N)c1nc(CC(C)C)n(Cc3ccc(CN)cc3)c12` [Compound 3, methyl 4-amino-1-(4-(aminomethyl)benzyl)-2-isobutyl-1H-imidazo[4,5-c]quinoline-7-carboxylate] was run?
Its value is “concentration-dependent reduction; also recorded: potent inhibitor”.

What about the “inhibition of IFNγ production” value ([4]; agonist 5 induced, FIG. 4B) of the same molecule?
Its value is “concentration-dependent reduction; also recorded: potent inhibitor”.

What about the “inhibition of IL-1β production” value ([4]; agonist 5 induced, FIG. 4C) of the same molecule?
Its value is “concentration-dependent reduction; also recorded: potent inhibitor”.

What about the “stimulatory activity in hPBMCs” value ([4]; compound itself) of the same molecule?
The value was “devoid of stimulatory activity”.

And the “TLR-7 antagonist activity against compound 5 (in words)” value [5]?
The value was “concentration-dependent shifts; also recorded: low μM antagonists”.

And the IC50 [5]?
Its IC50 is 3.91 ± 0.15 µM.

Which results are given for `COC(=O)c1ccc2c(c1)nc(N)c1nc(CC3CC3)n(Cc3ccc(CN)cc3)c12` [Compound 4, methyl 4-amino-1-(4-(aminomethyl)benzyl)-2-(cyclopropylmethyl)-1H-imidazo[4,5-c]quinoline-7-carboxylate]?
TLR-7 antagonist activity against compound 5 (in words) [5]: concentration-dependent shifts; also recorded: low μM antagonists; IC50 [5]: 4.1 ± 0.2 µM
